Test results: patent US20230057699A1, “NANOTECHNOLOGY-BASED PESTICIDES AND INTERMEDIATES, COMPOSITIONS AND TREATMENTS USING THE SAME” (priority 2020, published 2023)
Where “and” joins values, the source holds several entries; their conditions need not be identical. Equal values may be shown once. Read-outs that look alike come from different tables or passages of the source.

How the values were obtained:
Corn (Zea mays) seeds = experiment: Corn seed germination; details: 0.25-50 mg/L, 7 days
[1] = system: Pseudokirchneriella subcapitata; experiment: Green alga cell growth (cell count); type: cell-based
Protocol: Control group (panel A) received only growth medium (100 mL). Each treatment received 1.2×10^6 cells/mL on day-0 and were allowed to grow until day-28 when the experiments were halted. Cell count was recorded on day-7 (acute), day-14 and day-28 (chronic).
(§1) 1.a. […] Experiments were repeated twice for NoPest-Ag5, Ag+ ions and control groups, and data were combined. Algae were cultured in an Erlenmeyer flask with 100 mL growth media using a16:8 h day:night cycle at 25±2° C. under the LED lighting of 4830 lux. Microscopic analysis coupled with hemocytometer was used to measure cell growth, and total chlorophyll (chlorophyll [a+b]) was used to measure primary productivity, in algae.

Daphnia magna [2] = experiment: Daphnia magna chronic 21-day reproduction test; type: in vivo
Source text: FIG. 23 depicts a Daphnia magna 21-day (chronic) reproduction test.
This mirrors OECD 202, Daphnia sp. Reproduction Test.

E. coli DH5α [3] = experiment: Antimicrobial growth curves; type: cell-based, Escherichia coli; details: 10 ppm
Protocol: (§2) FIG. 8 depicts the antimicrobial effects of positively charged NH2—AgNPs compared with carboxylate/citrate AgNPs (cit-AgNPs) and Ag^+ ions on E. coli DH5α and K12 growth (panel A), and the effects of the surface interaction of 10 mg/L (equivalent to 10 ppm) NH2—AgNPs compared with the effects of the surface interaction of Cit-AgNPs and Ag^+ ions on E. coli DH5α (panel B).

E. coli K12 = experiment: Antimicrobial growth curves; type: cell-based, Escherichia coli; details: 10 ppm
Protocol: as §2

[4] = system: Pseudokirchneriella subcapitata; experiment: Green alga total chlorophyll (a+b) analysis; type: cell-based
Protocol: Control group (panel A) received only growth medium (100 mL). Chlorophylls (a and b) were extracted using a 95% ethanol method and measured using an UV-Vis spectrophotometer (Hach DR6000). Each treatment received 1.2×10^6 cells/mL on day-0 and were allowed to grow until day-28 when the experiments were halted. Chlorophylls were recorded on day-7 (acute), day-14 and day-28 (chronic).
as §1
1.b. Chlorophyll analysis: Chlorophylls (a and b) were extracted using 95% ethanol method, measured using UV-Vis spectrophotometer (Hach DR6000), and reported as total chlorophyll (a+b).

E. coli DH5α [5] = experiment: Surface interaction with bacterial cells (imaging); type: cell-based, Escherichia coli; details: 10 mg/L (as total Ag), 72 h
Protocol: as §2

soybean seed = experiment: Soybean seed germination; details: 0.25-50 mg/L, 7 days
Soybean seeds = experiment: Soybean seedling biomass; type: in vivo, Glycine max; details: 0.2-50 mg/L, day-7
Source text: FIG. 13 depicts the effect of exposure to NH2—AgNPs on soybean seedling biomass.

Daphnia magna [6] = experiment: Daphnia magna acute 48-hour survival test
Protocol: FIG. 22 depicts a Daphnia magna 48-hour (acute) toxicity test.
This mirrors OECD 202, Daphnia sp. Reproduction Test. […] Daphnia were cultured in a beaker (500 mL) using 16:8 h day:night cycle at 20±2° C. under the diffused cool LED lighting.

[7] = system: honeybee, Apis mellifera L.; experiment: Honeybee 48-hour contact (dermal) exposure test (OECD 214); type: in vivo; details: for 48-hour Mortality: per replicate of 10 bees, listed as Positive Control
Protocol: (§3) Pollinators, especially honeybees, are susceptible to certain insecticides. Understanding the susceptibility of honeybees will determine the test substance's safe use in the environment as well as when the product should be used in relation to honeybee activity.
Honeybee 48-hour Contact (Dermal) Exposure Test Contact exposure followed OECD Test 214 method. Young adult worker honeybees were exposed to six test doses ranging from 0.1 to 40 ng a.i./bee administered topically to the dorsal side of the thorax of each bee in a 2 μL droplet of water containing 1% Tween 80 surfactant. A negative control group and a surfactant control group were maintained concurrently. Additional groups of bees from the same source were nominally dosed with imidacloprid, at 0.032, 0.08 and 0.2 μg a.i./bee as a positive control substance. The positive control test was conducted concurrently with the definitive test and the bees were administered topically to the dorsal side of the thorax of each bee in a 2.0 μL droplet with water containing […] surfactant. Three replicate test chambers were maintained in each control and treatment group, with 10 bees in each test chamber. Observations of mortality and other signs of toxicity were made for approximately 48 hours after dosing. Cumulative mortality observed in the test groups was used to determine the LD50.

[8] = system: honeybee, Apis mellifera L.; experiment: as above; type: in vivo; details: 0.008 μg a.i./bee [4 mg a.i./L], per replicate of 10 bees, listed as Positive Control
[9] = system: honeybee, Apis mellifera L.; experiment: Honeybee 48-hour oral exposure test (OECD 213); type: in vivo; details: for 48-hour Mortality: per replicate of 10 bees; for Consumption after 6 hours: Consumed: per replicate, 200 μL provided
Protocol: as §3
Honeybee 48-hour Oral Exposure Test: Oral exposure followed OECD Test 213 method. […] The test included nominal test item doses ranging from 1 to 400 ng a.i./bee (ppt a.i./bee) and a concurrent negative control group. Additional groups of bees from the same source were dosed with imidacloprid, at 0.0013, 0.0032 and 0.008 μg a.i./bee (ppb a.i./bee) as a positive control substance, also conducted concurrently. Three replicate test chambers were maintained in each control and treatment group, with 10 bees in each test chamber. Observations of mortality and other signs of toxicity were made for approximately 48 hours after dosing. Cumulative mortality observed in the test groups was used to determine the LD50 (lethal dose that kills 50% of the test populations).

[10] = 0.032 μg a.i./bee [16 mg a.i./L]
[11] = 0.2 μg a.i./bee [100 mg a.i./L]
[12] = 0.0013 μg a.i./bee [0.0065 mg a.i./L]
[13] = 0.0032 μg a.i./bee [0.016 mg a.i./L]
[14] = 0.0032 μg a.i./bee [0.016 mg a.i./L], listed as Positive Control
[15] = 0.008 μg a.i./bee [0.04 mg a.i./L]
[16] = 0.008 μg a.i./bee [0.04 mg a.i./L], listed as Positive Control

[Ag+] [Ag^+ ions]
Toxicity in germination of corn (Corn (Zea mays) seeds): non-toxic | Comparative toxicity of all four test compounds (cell count) [1]: most toxic | Algal growth compared to control (cell count) ([1]; at or above 1 mg/L): inhibited algal growth | Mean decrease in reproduction (Daphnia magna [2]; 0.01 mg/L): 6.6% | Mean increase in reproduction (Daphnia magna [2]; concentrations except 0.01 mg/L): 126.6-1120% | Nature of effect based on growth curves (E. coli DH5α [3]): bacteriostatic effects | Nature of effect based on growth curves (E. coli K12): bacteriostatic effects | Toxicity by total chlorophyll ([4]; 10 mg/L): less toxic compared to NoPest-Ag5 | Cell integrity after surface interaction (E. coli DH5α [5]): intact cells were observed, but with a shape change to a hexagonal honeycomb like phenotype lacking adherent fimbriae | Toxicity in germination of soybean (soybean seed): non-toxic | Seedling biomass compared to control (water only) (Soybean seeds): promoted seedling biomass

[Cd+2] [Cd^2+ ions]
Algal growth compared to control (cell count) ([1]; 0.5 mg/L): stimulatory | Algal toxicity (cell count) ([1]; at or above 0.75 mg/L): toxicity of Cd^2+ ions increased | Chlorophyll synthesis ([4]; 0.05-0.75 mg/L): chlorophyll synthesis did occur | Chlorophyll synthesis compared to control ([4]; at or above 1 mg/L): inhibited chlorophyll synthesis

[Cu+2] [Cu^2+ ions]
Mean survival (Daphnia magna [6]; 0.5 mg/L): 0%

O=[N+]([O-])NC1=NCCN1Cc1ccc(Cl)nc1 [Imidacloprid]
48-hour Mortality Mean ([7]; 0.008 μg a.i./bee [4 mg a.i./L]): 10% | 48-hour Mortality Mean [7, 10]: 33% | 48-hour Mortality [7, 10]: 40% and 10% and 50% | 48-hour Mortality Mean [7, 11]: 77% | 48-hour Mortality [7, 11]: 70% and 100% and 60% | Surviving bees that appeared lethargic ([7]; 24 lethargic out of 54 surviving bees): 46.3% | LD50 ([7]; 48-hour): 0.11 μg a.i./bee | Average mortality ([7]; 48-hr, positive control doses, n=30 bees per concentration): 10%-77% | Comparative toxicity of all four test compounds (cell count) [1]: least toxic | Algal toxicity based on cell count ([1]; all concentrations tested): generally non-toxic, except at a high concentration of 100 mg/L | Cell growth ([1]; by day-28): concentration-dependent inhibition above 1 mg/L | Mean survival (Daphnia magna [6]; all concentrations tested): 66.6-86.6% | 48-hour Mortality [8]: 0% and 20% and 10% | Reproduction compared with control (Daphnia magna [2]): not significantly different from control | Comparative toxicity of all four test compounds (chlorophyll) [4]: least toxic | Toxicity by total chlorophyll [4]: generally non-toxic | 48-hour Mortality Mean [9, 12]: 0% | Consumption after 6 hours: Consumed, Mean [9, 12]: 198 µL | 48-hour Mortality [9, 12]: 0% | Consumption after 6 hours: Consumed ([9]; 0.0013 μg a.i./bee [0.0065 mg a.i./L], listed as Positive Control): 200 μL (2×) and 195 μL | 48-hour Mortality Mean [9, 13]: 3% | Consumption after 6 hours: Consumed, Mean [9, 13]: 163 µL | 48-hour Mortality [9, 14]: 0% (2×) and 10% | Consumption after 6 hours: Consumed [9, 14]: 140 µL and 150 µL and 200 µL | 48-hour Mortality Mean [9, 15]: 7% | Consumption after 6 hours: Consumed, Mean [9, 15]: 88 µL | 48-hour Mortality [9, 16]: 0% (2×) and 20% | Consumption after 6 hours: Consumed [9, 16]: 85 µL and 110 µL and 70 µL | Average survival ([9]; 48-hr, 0.0013-0.008 μg a.i./bee): 93%-97% | Appearance of surviving bees at test termination ([9]; 48 hours): appeared normal | Mean consumption per replicate ([9]; positive control groups): 88 to 198 µL
